Measured values from patent US20060193931A1, “Nutritional or therapeutic composition containing the compound oleuropeine or one of the derivatives thereof” (priority 2003, published 2006).

What was measured:
Type in all cases: in vivo, rat (Wistar)
[1] = test system: ovariectomized female rats, suffering from inflammation (OVX inf); test: Femur bone mineral density in ovariectomized female rats with talc-induced inflammation; settings: OVX inf female Wistar rats
Method: (§1) The experiment was conducted on 40 female rats Wistar aged 6 months, amongst which thirty were ovariectomized (OVX) and 10 pseudo-operated (SH). Animals were placed in metabolic cages enabling to separately collect the urines at a controlled temperature of 21±1° C., according to a 12 h-12 h nyctohemeral cycle. Following the surgical operation at Day0, animals were accustomed for seven days to a basic semisynthetic diet (INRA, Jouy-en-Josas, France), supplemented with 2.5% groundnut oil and 2.5% rapeseed oil and humidified to 1 ml water per gram powder. At the end of this adaptation period, the rats were separated in four homogeneous batches according to weight parameters and were fed for 72 days 22 g per day of following diets: • Batch SH/10 pseudo-operated female rats fed control diet (basic diet supplemented with 2.5% groundnut oil and 2.5% rapeseed oil), • Batch OVXinf: 10 ovariectomized female rats fed control diet, • Batch OL: 10 ovariectomized female rats fed control diet supplemented with 0.015% oleuropein. • Batch HO: 10 ovariectomized female rats fed basic diet supplemented with 5% extra-virgin olive oil.
(§2) Oil storage was kept away from light. Feed was prepared once a week and stored at +4° C.
At D55, that is 3 weeks before the end of the experiment, an inflammation was induced in each batch, except in control batch (SH). Four talc subcutaneous injections (3.2 g magnesium silicate (Sigma) suspended in […] physiological saline) were administrated in 4 distinct sites of the animal back.
The day of sacrifice (D80), animals were anesthetized with a chloral intraperitoneal injection (Fluka/8% solution, 0.4 ml/100 g of live weight). Blood samples were collected at abdominal aorta for dosing orosomucoid (inflammation marker, in particular of the acute phase for humans and rats (Fournier and al. 2000), that is produced by lever and other extra-hepatic sites under the control of II1, TNFα and II6 cytokines).
Femurs were collected and removed from adjacent soft tissues, then kept in 80% ethanol for bone density determination.

[2] = test system: ovariectomized female rats, suffering from inflammation (OVX inf); test: Body weight and uterine weight in ovariectomized female rats with talc-induced inflammation (senile osteoporosis model); settings: OVX inf female Wistar rats
Method: as §1, §2
(§3) At D55, that is 3 weeks before the end of the experiment, an inflammation was induced in each batch, except in control batch (SH). […]

[3] = test system: ovariectomized female rats, suffering from inflammation (OVX inf); test: Inflammation markers (plasma orosomucoid, spleen weight) in ovariectomized female rats with talc-induced inflammation; settings: OVX inf female Wistar rats; diet for 72 days; sacrifice D80; mean ± SEM
Method: as §1, §2, §3

[4] = diet with 0.015% oleuropein or 5% extra-virgin olive oil for 72 days, sacrifice D80, mean ± SEM
[5] = femur, oleuropein diet for 72 days

C/C=C1/[C@H](O[C@@H]2O[C@H](CO)[C@@H](O)[C@H](O)[C@H]2O)OC=C(C(=O)OC)[C@H]1CC(=O)OCCc1ccc(O)c(O)c1 [oleuropein]
total bone mineral density (femur) [1, 4]: 0.2258±0.0028 g/cm^2
bone cortical substance density [1, 5]: increase
bone trabecular substance density [1, 5]: increase
uterotrophic effect ([2]; diet for 72 days, judged from uterine weight): free from any uterotrophic effect
uterine weight [2, 4]: 0.034±0.001 g uterus/100 g body weight
spleen weight [3]: 0.201±0.011 g spleen/100 g body weight
